# Results as given in patent US7169932B2 (priority 2001, dated 2007).
# Where two headings read alike, the source gives them in different places.
# Key:
# HIV-1 = experiment: Cytopathic Effect (CPE) Inhibition Assay (XTT dye reduction); format: cell-based
# Experimental: T-cell lines, CEM-SS, and MT-2, and viruses HIV-1 RF and HIV-1 NL4–3 (pNL4–3) were obtained from the National Institutes of Health (AIDS Research and Reference Reagent Program, Bethesda, Md.).
# The ability of compounds to protect cells against HIV infection was measured by the […] dye reduction method, essentially as described (See Pauwels, R. Balzarini, J. Baba, M. Snoeck, R. Schols, D. Herdewijn, P. Desmyter, J. and De Clercq, E. 1988, “Rapid and automated tetrazolium-based colorimetric assay for the detection of anti-HIV compounds,”. J Virol Methods., 20: 309–321 and Weislow, O. S. Kiser, R. Fine, D. L. Bader, J. Shoemaker, R. H. and Boyd, M. R. 1989. “New soluble-formazan assay for HIV-1 cytopathic effects: application to high-flux screening of synthetic and natural products for AIDS-antiviral activity”. J. Natl. Cancer Inst. 81:577–586). Subject cells were infected with test virus at an moi of 0.025 to 0.819 or mock infected with medium only and added at 2×10^4 cells per well into 96 well plates containing half-log dilutions of test compounds. Six days later, 50 μl of XTT (1 mg/ml XTT tetrazolium, […] phenazine methosulfate) was added to the wells and the plate was reincubated for four hours. Viability, as determined by the amount of XTT formazan produced, was quantified spectrophotometrically by absorbance at 450 nm. Data from CPE assays were expressed as the percent of formazan produced in compound-treated cells compared to formazan produced in wells of uninfected, compound-free cells. The fifty percent effective concentration (EC50) was calculated as the concentration of compound that effected an increase in the percentage of formazan production in infected, compound-treated cells to 50% of that produced by uninfected, compound-free cells. The 50% cytotoxicity concentration (CC50) was calculated as the concentration of compound that decreased the percentage of formazan produced in uninfected, compound-treated cells to 50% of that produced in uninfected, compound-free cells. The therapeutic index was calculated by dividing the cytotoxicity (CC50) by the antiviral activity (EC50).
# HIV-1 protease (Q7S) = molecular target: T1, HIV-1 protease (Q7S) (Human immunodeficiency virus type 1 group M subtype B, UniProt P04585, Q495S); experiment: HIV-1 Protease RET Assay; format: biochemical
# T1 construct: made in house
# Experimental: Ki's for the inhibitors of HIV-1 protease were determined using a resonance energy transfer (RET) assay. […] This enzyme is first partially purified as inclusion bodies from cell lysate. It is then solublized in 8M urea and passed through a Q-Sepharose column (Pharmacia) for further purification. To refold this protein, samples containing Q7S is dialyzed into 50 mM sodium phosphate pH 7.0, 50 mM NaCl, 10 mM DTT, and 10% glycerol.
# The commercially available peptide substrate (Molecular Probes Cat. # H-2930) RE(EDANS)SQNYPIVQK(DABCYL)R is used to assess activity and Ki's. This peptide is cleaved quantitatively by HIV-1 Pr at the Tyr-Pro bond. The EDANS fluorophore absorbs at 340 nm and emits at 490 nm. The reaction is carried out in a 96 well plate in a total volume of 100 μL and is run for 12 minutes at 37 C under steady-state conditions with 5 μM substrate and 2 nM active dimer enzyme concentration. The literature value Km for this substrate and enzyme is 103+/−8 μM (See Matayoshi, et al., “Novel Fluorogenic Substrates for Assaying Retroviral Proteases by Resonance Energy Transfer,” Science 247, 954 (1990)). The buffer for this reaction is 0.1M sodium acetate pH 4.8, 1M NaCl, 1 mM EDTA, 5 mM dithiothreitol, 10% dimethyl sulfoxide and 1 mg/ml bovine serum albumin. Inhibition curves are fit using the Morrison tight binding equation.
# [1] = Ki, table of drawn compounds, unit inferred
# [2] = Human immunodeficiency virus 1, 144 h, read-out: Ave CPE EC50 (mM)
# [3] = Ave. Ki (nM), RET assay, Q7S enzyme, pH 4.8, 37 C
SMILES,EC50 (HIV-1; Human immunodeficiency virus 1) [nM],Ki (HIV-1 protease (Q7S); [1]) [nM],EC50 (HIV-1; [2]) [nM],Ki (HIV-1 protease (Q7S); [3]) [nM]
Cc1cc(C(=O)N[C@@H](Cc2ccccc2)[C@H](O)C(=O)N2CSC(C)(C)[C@H]2C(=O)NCc2ccccc2C)n[nH]1,3000,19.5,,
"Cc1c(O)cccc1C(=O)N[C@@H](Cc1ccccc1)[C@H](O)C(=O)N1CSC(C)(C)[C@H]1C(=O)NC/C=C/C(F)(F)F [Example A40, (R)-3-((2S,3S)-2-Hydroxy-3-{[1-(3-hydroxy-2-methyl-phenyl)-methanoyl]-amino}-4-phenyl-butanoyl)-5,5-dimethyl-thiazolidine-4-carboxylic acid ((E)-4,4,4-trifluoro-but-2-enyl)-amide]",,,275,1.2
"Cc1noc(C)c1C(=O)NC(Cc1ccccc1)C(O)C(=O)N1CSC(C)(C)C1C(=O)NCc1c(F)cccc1F (centres unmarked) [Example B25, 3,5-Dimethyl-isoxazole-4-carboxylic acid {1-benzyl-3-[4-(2,6-difluoro-benzylcarbamyl)-5,5-dimethyl-thiazolidin-3-yl]-2-hydroxy-3-oxo-propyl}-amide]",,,1790,2.7
"Cc1ccccc1CNC(=O)[C@H]1N(C(=O)[C@@H](O)[C@H](Cc2ccccc2)NC(=O)c2c(C)nn(C)c2Cl)CSC1(C)C [Example B14, 3-{(S)-3-[(5-Chloro-1,3-dimethyl-1H-pyrazole-4-carbonyl)-amino]-2-hydroxy-4-phenyl-butyryl}-5,5-dimethyl-thiazolidine-4-carboxylic acid 2-methyl-benzylamide]",,,3050,3.7
C=CCNC(=O)[C@H]1N(C(=O)[C@@H](O)[C@H](Cc2ccccc2)NC(=O)[C@@H]2CCCO2)CSC1(C)C,3300,17.3,,
"CCCNC(=O)[C@H]1N(C(=O)[C@@H](O)[C@H](Cc2ccccc2)NC(=O)c2ccccc2C)CSC1(C)C [Example B30, (R)-3-{(2S,3S)-2-Hydroxy-4-phenyl-3-[(1-o-tolyl-methanoyl)-amino]-butanoyl}-5,5-dimethyl-thiazolidine-4-carboxylic acid propylamide]",,,1230,1.1
"C=CCN(C)C(=O)[C@H]1N(C(=O)[C@@H](O)[C@H](Cc2ccccc2)NC(=O)c2cccc(O)c2C)CSC1(C)C [Example A23, (R)-3-((2S,3S)-2-Hydroxy-3-{[1-(3-hydroxy-2-methyl-phenyl)-methanoyl]-amino}-4-phenyl-butanoyl)-5,5-dimethyl-thiazolidine-4-carboxylic acid allyl-methyl-amide]",,,72,0.65
Cc1ccccc1CNC(=O)[C@H]1N(C(=O)[C@@H](O)[C@H](Cc2ccccc2)NC(=O)c2cc(C(C)(C)C)on2)CSC1(C)C,≥ 10000,214,,
Cc1cc(Cl)ccc1CNC(=O)[C@H]1N(C(=O)[C@@H](O)[C@H](Cc2ccccc2)NC(=O)c2cccc(O)c2C)CSC1(C)C,207,0.26,,
"Cc1c(O)cccc1C(=O)N[C@@H](Cc1ccccc1)[C@H](O)C(=O)N1CSC(C)(C)[C@H]1C(=O)NCc1ccc(C(F)(F)F)cc1 [Example A9, (R)-3-((2S,3S)-2-Hydroxy-3-{[1-(3-hydroxy-2-methyl-phenyl)-methanoyl]-amino}-4-phenyl-butanoyl)-5,5-dimethyl-thiazolidine-4-carboxylic acid 4-trifluoromethyl-benzylamide]",,,565,4
Cc1c(O)cccc1C(=O)N[C@@H](Cc1ccccc1)[C@H](O)C(=O)N1CSC(C)(C)[C@H]1C(=O)c1ccccc1,1220,2.5,,
Cc1c(O)cccc1C(=O)N[C@@H](Cc1ccccc1)[C@H](O)C(=O)N1CSC(C)(C)[C@H]1C(=O)NCc1ccc(F)c(F)c1F,334,0.11,,
"Cc1ccccc1CNC(=O)[C@H]1N(C(=O)[C@@H](O)[C@H](Cc2ccccc2)NC(=O)c2cccc(F)c2C)CSC1(C)C [Example B36, (R)-3-((2S,3S)-3-{[1-(3-Fluoro-2-methyl-phenyl)-methanoyl]-amino}-2-hydroxy-4-phenyl-butanoyl)-5,5-dimethyl-thiazolidine-4-carboxylic acid 2-methyl-benzylamide]",,,615,< 0.1
"Cc1c(O)cccc1C(=O)N[C@@H](Cc1ccccc1)[C@H](O)C(=O)N1CSC(C)(C)[C@H]1C(=O)NCc1cccc(N)c1 [Example A29, (R)-3-((2S,3S)-2-Hydroxy-3-{[1-(3-hydroxy-2-methyl-phenyl)-methanoyl]-amino}-4-phenyl-butanoyl)-5,5-dimethyl-thiazolidine-4-carboxylic acid 3-amino-benzylamide]",,,117,< 0.1
COc1ccccc1C(=O)N[C@@H](Cc1ccccc1)[C@H](O)C(=O)N1CSC(C)(C)[C@H]1C(=O)NCc1ccccc1C,1490,2.1,,
Cc1c(O)cccc1C(=O)N[C@@H](Cc1ccccc1)[C@H](O)C(=O)N1CSC(C)(C)[C@H]1C(=O)NCCC(C)(C)C,1060,4.7,,
"Cc1c(O)cccc1C(=O)N[C@@H](Cc1ccccc1)[C@H](O)C(=O)N1CSC(C)(C)[C@H]1C(=O)NCCCl [Example A49, (R)-3-[(2S,3S)-2-Hydroxy-3-(3-hydroxy-2-methyl-benzoylamino)-4-phenyl-butyryl]-5,5-dimethyl-thiazolidine-4-carboxylic acid (2-chloro-ethyl)-amide]",,,130,1.2
"C=CCNC(=O)[C@H]1N(C(=O)[C@@H](O)[C@H](Cc2ccccc2)NC(=O)c2cccc(F)c2C)CSC1(C)C [Example B33, (R)-3-((2S,3S)-3-{[1-(3-Fluoro-2-methyl-phenyl)-methanoyl]-amino}-2-hydroxy-4-phenyl-butanoyl)-5,5-dimethyl-thiazolidine-4-carboxylic acid allylamide]",,,1290,1.2
"Cc1ccccc1CNC(=O)[C@@H]1C[C@H](F)CN1C(=O)[C@@H](O)[C@H](Cc1ccccc1)NC(=O)c1cccc(O)c1C [Example C3, (2S,4S)-4-Fluoro-1-[(2S,3S)-2-hydroxy-3-(3-hydroxy-2-methyl-benzoylamino)-4-phenyl-butyryl]-pyrrolidine-2-carboxylic acid 2-methyl-benzylamide]",,,500,1.3
"Cc1ccccc1CNC(=O)[C@H]1N(C(=O)[C@@H](O)[C@H](Cc2ccccc2)NC(=O)c2cccc(N)n2)CSC1(C)C [Example B40, 6-Amino-pyridine-2-carboxylic acid {(1S,2S)-1-benzyl-3-[(R)-5,5-dimethyl-4-(2-methyl-benzylcarbamoyl)-thiazolidin-3-yl]-2-hydroxy-3-oxo-propyl}-amide]",,,1400,2.8
"C/C=C(/C)CNC(=O)[C@H]1N(C(=O)[C@@H](O)[C@H](Cc2ccccc2)NC(=O)c2cccc(O)c2C)CSC1(C)C [Example A34, (R)-3-((2S,3S)-2-Hydroxy-3-{[1-(3-hydroxy-2-methyl-phenyl)-methanoyl]-amino}-4-phenyl-butanoyl)-5,5-dimethyl-thiazolidine-4-carboxylic acid ((Z)-2-methyl-but-2-enyl)-amide]",,,36,< 0.1
"C/C=C\CNC(=O)[C@H]1N(C(=O)[C@@H](O)[C@H](Cc2ccccc2)NC(=O)c2cccc(O)c2C)CSC1(C)C [Example A31, (R)-3-((2S,3S)-2-Hydroxy-3-{[1-(3-hydroxy-2-methyl-phenyl)-methanoyl]-amino}-4-phenyl-butanoyl)-5,5-dimethyl-thiazolidine-4-carboxylic acid (Z)-but-2-enylamide]",,,41,< 0.1
